The test system of one assay is Neuro2A cells. Put plainly: Neuro2A cells that extended neurites, with GGTI-298 (Example 18). The assay is classed as cell-based, mouse. Particulars: 0.1-1 μM, vehicle 0.0-0.20. The source says:
After differentiation was induced, cells that extended neurites were counted.

The next assay relates to Rap1. Put plainly: Prenylation of Rap1 in Neuro2A cells with GGTI-298 (western blot). It is filed as cell-based, mouse. Conditions: 100 nM; percentage of control treatments (GGTI only). As to the method: Mouse neuroblastoma Neuro2A cells were cultured in DMEM supplemented with 10% FBS for 24 hrs. The cells were treated with 102GGA derivative compounds for 24 hrs first before GGTase inhibitor GGTI-298 was added to the culture medium for additional 24 hr incubation. […] Both un-prenylated and total Rap1 protein bands were quantified using Image J and normalized to their respective loading control GAPDH. The results for control and each compound treatment were calculated as the ratio of normalized un-prenylated Rap1 to total Rap1, and averaged from two biological repeats of one experiment. The final results were presented as a percentage of the control treatments (GGTI only) from the same batch experiment. The data shown in the chart were averaged from two repeats of one experiment and presented as the ratio of normalized un-prenylated Rap1 to total Rap1. Compound ID numbers in table refer to structures in Table 1 and Table 2.

Assay [1] relates to HSP70. Put plainly: HSP70 expression in Neuro2A cells by western blot. Particulars: for HSP70 western signal (absence of compounds = 1.00): 48 hours, then GGTI-298. It is filed as cell-based, mouse. As to the method:
Differentiation was induced and cells incubated with geranylgeranyl transferase I inhibitor, GGTI-298. Cells were harvested and lysates were prepared and analyzed by western blot for HSP70 and HSP90. Western signals in the absence of the compounds were normalized as 1.00.

Assay [2] has as its system Sprague-Dawley rats injected with Kainic acid. Put plainly: Kainic acid induced neurodegeneration and seizure in rats (Example 21). It is filed as in vivo, rat. Conditions: oral. The source says:
Seizure behaviors were observed and scored (Ref. R. J. Racine, Modification of seizure activity by electrical stimulation: II. Motor seizure, Electroencephalogr. Clin. Neurophysiol. 32 (1972) 281-294. Modifications were made for the methods). Brain tissues of rats were sectioned on histology slides, and neurons in hippocampus tissues were stained by Nissl. Neurons damaged by Kainic acid and behavior scores were quantified.

Assay [3] has as its system Mouse Neuro2A neuroblastoma cells. Nature of the assay: Neuro2A cells with neurites after GGTI-298 (Example 16). The assay is classed as cell-based. Conditions: 10 μM, 48 hrs. As to the method: Mouse Neuro2A neuroblastoma cells were cultured in DMEM supplemented with 10% FBS for 24 hrs. […] Then differentiation was induced by retinoic acid in DMEM supplemented with 2% FBS. The cell culture was incubated with a Geranylgeranyl Transferase inhibitor, GGTI-298. […]

Assay [4] relates to Murine neuro2A neuroblastoma cells. Put plainly: Neurite outgrowth of neuro2A cells inhibited with GGTI-298 (Example 30). The assay is classed as cell-based, mouse. Conditions: for Median Counts of cells with neurite outgrowth: CNS-102 vs CNS-103 experiment (no inhibition 60.3, PBS 18.5); for Relative %: relative to uninhibited count. As to the method:
Differentiation was induced and cells incubated with geranylgeranyl transferase I inhibitor, GGTI-298. After 24 h digital images were taken and neurite outgrowth was quantified. The comparisons of the neuroprotective effect of these three compounds are shown below.
The estimated mean log10 counts, from five replicate wells for each treatment group were calculated by PROC GLM in SAS assuming a pooled estimate of variation.
The estimated mean log10 counts from five replicate wells for each treatment group were calculated by PROC GLM in SAS assuming a pooled estimate of variation.
Differences in mean log(counts) between treatments for each concentration were calculated using PROC GLM in SAS. The p-value given is for the comparison of the estimated difference to zero, the expected difference value for no treatment effect. The anti-log of the differences represent the estimated ratio of counts (relative effect on inhibition) and are tabulated below along with the lower and upper 95% confidence intervals.

In assay [5] the test system is HSP70. Put plainly: HSP70 levels in Neuro 2A cells by ELISA. It is filed as cell-based, mouse. Particulars: 10 uM compound for 48 hrs, then GGTI-298 24 hrs. As to the method: Mouse neuroblastoma 2a cells were cultured in DMEM with 10% FBS for 24 hrs. […] After 24 hrs cells were harvested and lysates were prepared and analyzed by ELISA for HSP70. Compound ID numbers in table refer to structures in Table 1 and Table 2.
(In general: In an ELISA, binding on a coated surface is turned into a signal by an enzyme label.)

The test system of assay [6] is Neuro2A cells treated with A-beta (O). Put plainly: Rescue of amyloid-beta oligomer induced cytotoxicity in Neuro 2A cells (CellTiter-Glo). It is filed as cell-based. Conditions: Mus musculus, N2a, compound 1 uM, A-beta (O) together with compound 48 hr, read-out: % viability vs. untreated. The procedure: Preparation of amyloid-beta oligomer (A-beta (O)): Synthetic wild type A-beta (1-42) was purchased from American Peptide, and first dissolved with hexafluoroisopropanol (HFIP), then dried in the blowing tissue culture hood overnight to form a film in the eppendorf tube. The A-beta peptide film was first resuspended with DMSO to a concentration of 5 mM, further diluted with DMEM containing N2 supplement (Invitrogen) to achieve a concentration of 100 μM, and then sonicated in room temperature water bath for 10 minutes. The 100 μM peptide solution was then incubated at 4° C. for 24 hr and thoroughly vortexed before applied to cells.
Mouse neuroblastoma Neuro2A cells were plated in 96-well plates and cultured in DMEM supplemented with 10% FBS for 24 hr. […] At the end of incubation, cells were harvested and subjected to viability assay using CellTiter-Glo Luminescent Cell Viability Assay Kit (Promega). The data for each treatment was calculated as average of 4 replicates and normalized to that of A-beta (O) treated only. Compound ID numbers in table refer to structures in Table 1 and Table 2.
In general terms: Cellular ATP, detected with luciferase, serves as a proxy for viable cell number.

[7] abbreviates: 10000 nM, CNS-102 vs CNS-103 experiment.

Each structure is given as a SMILES string.

As to `CC(=O)CC/C=C(/C)CC/C=C(\C)CC/C=C(\C)CCC=C(C)C` [CNS-103], the “Mean of cell numbers (Arbitrary units)” value in the assay with Neuro2A cells was 0.20-0.45 Arbitrary units; in assay [3], 0.195 Arbitrary units. In addition, the “unprenylated/total RAP1 (%)” value in the assay on Rap1 was 96%. For the same compound, the “HSP70 western signal (absence of compounds = 1.00)” value in the assay with HSP70 [1] (100 nM) stood at 1.00; in the assay on HSP70 [1] (10 μM), 0.99. The “induction of HSP70 expression (in words)” value with HSP70 [1] (Neuro2A cells, western blot) is listed as “failed to induce expression of HSP70”. Also, the “Mean of Hippocampus CA3 neurons damaged (Arbitrary units)” value in assay [2] (12 mg/Kg rat) is given as 8.16 Arbitrary units; in assay [2] (25 mg/Kg rat), 10.64 Arbitrary units. Moreover, the “Median Counts of cells with neurite outgrowth” value in assay [4] (10 nM) came out at 26.7; in assay [4] (100 nM) it was 29.3; in assay [4] (1000 nM), 28.7; in assay [4] (10000 nM) it was 16.3. Moreover, the Relative % in assay [4] (10 nM, CNS-102 vs CNS-103 experiment) is 44.3%; in assay [4] (100 nM, CNS-102 vs CNS-103 experiment) it was 48.6%; in assay [4] (1000 nM, CNS-102 vs CNS-103 experiment) it was 47.6%; in assay [4] (setting [7]), 27%. Further, the Protection % in assay [4] (setting [7]) is on record as −5.3%. Further, the maximum protection in assay [4] (CNS-102 vs CNS-103 experiment, FIG. 4B) is roughly 26%.

As for `CC(C)=CCC/C(C)=C/CC/C(C)=C/COC(=S)NC1CC1` [Compound 9d, Cyclopropyl 2E, 6E-farnesyl thiocarbamate], in the assay on HSP70 [5], the “HSP70 ELISA signal (absence of compound normalized as 1.00)” value is given as 0.95.

By viability is commonly meant a read-out of living cells in per cent, often relative to untreated cells. `CC(C)=CCC/C(C)=C/CC/C(C)=C/CC/C(C)=C/CCC(C)=NO` [Compound 103]: in assay [6], the viability at 1 µM was found to be 128%.

Take `CCC(=O)CC/C=C(\C)CC/C=C(\C)CCC=C(C)C` [Compound 102]: in assay [6], the viability at 1 µM worked out at 140%.

For the origin of these results see patent US9045403B2 (Coyote Pharmaceuticals, Inc., priority 2012, dated 2015).
